Where a name gives a salt, the structure may show the parent alone.
What was measured:
Acute toxicity in rat = conditions: in vivo, 7 days
Experimental: (§1) (6) Acute toxicity in mouse and rat
(§2) Each ten male and female ICR-JCL strain mice and Sprague-Dawley-JCL strain rats were used for each dose.
(§3) Each test compound was given to animals in a form of suspension in 0.5% methyl cellose intraperitoneally, subcutaneously and orally. After administration, the incidence of the death was recorded for successive seven days. LD50 values were calculated by the method of Litchfield-Wilcoxon method.

[1] = tested on: passive cutaneous anaphylaxis (P.C.A.) reaction; test: Antagonism to passive cutaneous anaphylaxis (P.C.A.) in guinea-pig; type: in vivo, guinea-pig (male Hartley); conditions: for ED50: Cavia porcellus
Experimental: (b) Guinea-pig antiserum against egg albumin
Five mg of egg albumin emulsified in 0.5 ml of physiological saline and 0.5 ml of Freund's incomplete adjuvant was used as the antigen.
The amulsion was given subcutaneously in a single dose of 1 ml divided equally (0.25 ml) to the four foot pads of male Hartley strain guinea pigs, each weighing 250 to 300 g. Starting two weeks after dosing with the aforementioned emulsion, 0.1% egg albumin emulsified in physiological saline was given subcutaneously in equally divided (0.1 ml) doses of 0.4 ml once a week for 4 weeks to four sites on the backs of the test animals. Blood samples were collected from the carotid artery one week after the last injection, and centrifuged at 3000 r.p.m. at room temperature for 15 minutes. The antisera thus obtained were stored at -20° C.
(3) Antagonism to passive cutaneous anaphylaxis (P.C.A) in guinea-pig
Ten male Hartley strain guinea-pigs, weighing 300-350 g, were used for each dose. The animals were sensitized with 0.1 ml of the guinea-pig antiserum against egg albumin injected intracutaneously on the depilated backs of the animals. Four hours after injection of the antiserum, 1 ml of mixture of egg albumin […] and Evan's blue […] in physiological saline was injected intravenously. Thirty minutes after the injection of the antigen, the animals were sacrificed and the skin was removed. Each test compound was given orally 2 hours and intravenously 5 minutes before administration of the antigen. Each sensitized area of the skin was treated substantially in the same manner as that of the above mentioned test (2) to calculate ED50 value.

anaphylactic asthma = test: Antagonism to anaphylactic asthma in guinea-pigs; type: in vivo, guinea-pig (male Hartley); conditions: for Inhibitory effect of anaphylactic asthma in guinea-pig: survival more than 2 hours after antigen spray
[2] = tested on: passive cutaneous anaphylaxis (P.C.A.) reaction; test: Antagonism to passive cutaneous anaphylaxis (P.C.A.) in rat; type: in vivo, rat (male Sprague-Dawley-JCL); conditions: for ED50: Rattus norvegicus
Experimental: (1) Preparation of antiserum
(a) Rat reaginic antiserum against egg albumin
One mg of egg albumin emulsified in 0.5 ml of B. pertussisdiphtheria mixed vaccine (Tanabe Seiyaku Company Ltd.) and 0.5 ml of Freund's incomplete adjuvant (Difco) was used as the antigen. The emulsion was given subcutaneously in a single dose of 1 ml divided equally (0.25 ml) to the four foot pads of male Sprague-Dawley JCL strain rats aged 6 weeks, each weighing 170-220 g. Blood samples were collected from the femoral artery 12 days after injection, and centifuged at 3000 r.p.m. at 4° C. for 15 minutes. The antisera thus obtained were stored at -20° C.
(2) antagonism to passive cutaneous anaphylaxis (P.C.A.) in rat
Ten male Sprague-Dawley-JCL strain rats, weighing 290-310 g, were used for each dose. The rat reaginic antiserum against egg albumin was used at a dilution 1:4. The animals were sensitized with 0.1 ml of the antiserum injected intracutaneously on the depilated backs of the rats. Fortyeight hours after the injection of the antiserum, 1 ml of mixture of egg albumin 5 mg and Evans' blue 5 mg in physiological saline 1 ml was injected intravenously. Thirty minutes after the injection of the antigen, animals were sacrificed and the skin was removed. To each sensitized area of the skin was added 10 ml of a 4:1 mixture of acetone and 2% solution of RBS-25 (Marumoto Industrial Co., Ltd.) to extract the dye and the mixture was allowed to stand for 16 hours, during of which the mixture was twice shaken for 30 minutes at 5th hour and 16th hour. It was further centrifuged at 2,000 r.p.m. for 15 minutes and the quantity of the dye in the supernatant solution was determined by colorimetry at […]. Each test compound was given orally 2 hours and intravenously 5 minutes before administration of the antigen. The inhibitory effect of each test compound was determined from the dye amounts measured in comparison with the control group and the treated group and the ED50 value was calculated according to Litchfield-Wilcoxon method.

[3] = tested on: Bradykinin-induced bronchoconstruction; test: Antagonism to Bradykinin-induced bronchoconstruction in guinea-pigs; type: in vivo, guinea-pig (male Hartley); conditions: for Inhibitory effect of Bradykinin-induced bronchoconstruction in guinea-pig: 30 seconds before Bradykinin; for ED50: Cavia porcellus, iv, 30 seconds before Bradykinin 16 mg/kg i.v., Litchfield-Wilcoxon
Experimental: (5) Antagonism to Bradykinin-induced bronchoconstruction in guinea-pigs
Ten male Hartley strain guinea-pigs were used for each dose. The animals were immobilized with an intraperitoneal dose of 100 mg/kg of gallamine. The trachea was cannulated and the lungs were dilated with air by a respiration pump at the rate of 3 ml/time and 60.2 times/minute. Bradykinin 16 mg/kg was given intravenously and bronchoconstruction induced thereby was measured by Tanbule Strain gauge according to Konzett-Rossler method. The inhibitory effect against bronchoconstruction was determined in comparison with the control group and the treated group, and the ED50 value was measured according to Litchfield-Wilcoxon method. Each test compound was given intravenously 30 seconds before administration of the Bradykinin.

Acute toxicity in mouse = conditions: in vivo, 7 days
Experimental: as §1, §2, §3

[4] = iv, 5 min, i.v., 5 minutes before antigen
[5] = i.v., 4 mg/kg, 5 minutes before antigen
[6] = i.v., 16 mg/kg, 5 minutes before antigen
[7] = i.v., 64 mg/kg, 5 minutes before antigen
[8] = p.o., 32 mg/kg, 2 hours before antigen
[9] = p.o., 125 mg/kg, 2 hours before antigen
[10] = p.o., 500 mg/kg, 2 hours before antigen
[11] = iv, 5 min, i.v., 5 minutes before antigen, Litchfield-Wilcoxon

Row | SMILES | LD50 at 168 h (Acute toxicity in rat; po, female) | LD50 at 168 h (Acute toxicity in rat; po, male) | ED50 [1, 4] | ED50 ([1]; po, 2 hours before antigen) | Inhibitory effect of P.C.A. reaction in guinea-pig [1, 5] | Inhibitory effect of P.C.A. reaction in guinea-pig [1, 6] | Inhibitory effect of P.C.A. reaction in guinea-pig [1, 7] | Inhibitory effect of P.C.A. reaction in guinea-pig [1, 8] | Inhibitory effect of P.C.A. reaction in guinea-pig [1, 9] | Inhibitory effect of P.C.A. reaction in guinea-pig [1, 10] | Inhibitory effect of anaphylactic asthma in guinea-pig (anaphylactic asthma; 4 mg/kg i.v.) | Inhibitory effect of anaphylactic asthma in guinea-pig (anaphylactic asthma; 16 mg/kg i.v.) | Inhibitory effect of anaphylactic asthma in guinea-pig (anaphylactic asthma; 64 mg/kg i.v.) | ED50 [2, 11] | Inhibitory effect of P.C.A. reaction in rat [2, 5] | Inhibitory effect of Bradykinin-induced bronchoconstruction in guinea-pig ([3]; 1 mg/kg i.v.) | Inhibitory effect of Bradykinin-induced bronchoconstruction in guinea-pig ([3]; 4 mg/kg i.v.) | ED50 [3] | LD50 at 168 h (Acute toxicity in mouse; po, female) | LD50 at 168 h (Acute toxicity in mouse; po, male) | further results
1 | O=C(Cn1c(=O)sc2ccc(Cl)cc21)N1CCC(O)CC1 [Compound A, 3-(4-hydroxypiperidino)carbonylmethyl-5-chloro-2-benzothiazolinone] | > 8000 mg/kg | > 8000 mg/kg | 29.1 mg/kg | 202 mg/kg | 15.5% | 32.9% | 68.9% | 33.5% | 31.7% | 67.4% | 0% | 90% | 100% | 56.6 mg/kg | 22.6% | 89% | 91% | 0.278 mg/kg | > 8000 mg/kg | > 8000 mg/kg | LD50 at 168 h (Acute toxicity in rat; ip, female): 5800 mg/kg; LD50 at 168 h (Acute toxicity in rat; ip, male): 7110 mg/kg; LD50 at 168 h (Acute toxicity in rat; sc, female): > 8000 mg/kg; LD50 at 168 h (Acute toxicity in rat; sc, male): > 8000 mg/kg; ED50 (anaphylactic asthma; Cavia porcellus, iv, 2 h, i.v., anaphylactic asthma, Litchfield-Wilcoxon, read-out: ED50 (dose required for 50% protection from death)): ~8.5 mg/kg; ED50 ([2]; po, 2 hours before antigen, Litchfield-Wilcoxon): 348 mg/kg; Inhibitory effect of P.C.A. reaction in rat [2, 6]: 41.5%; Inhibitory effect of P.C.A. reaction in rat [2, 7]: 49.1%; Inhibitory effect of P.C.A. reaction in rat [2, 8]: 20.8%; Inhibitory effect of P.C.A. reaction in rat [2, 9]: 20.8%; Inhibitory effect of P.C.A. reaction in rat [2, 10]: 62.3%; Inhibitory effect of Bradykinin-induced bronchoconstruction in guinea-pig ([3]; 0.064 mg/kg i.v.): 12%; Inhibitory effect of Bradykinin-induced bronchoconstruction in guinea-pig ([3]; 0.25 mg/kg i.v.): 50%; LD50 at 168 h (Acute toxicity in mouse; ip, female): > 8000 mg/kg; LD50 at 168 h (Acute toxicity in mouse; ip, male): > 8000 mg/kg; LD50 at 168 h (Acute toxicity in mouse; sc, female): > 8000 mg/kg; LD50 at 168 h (Acute toxicity in mouse; sc, male): > 8000 mg/kg
2 | O=C(O)c1cc(=O)c2c(OCC(O)COc3cccc4oc(C(=O)O)cc(=O)c34)cccc2o1 [Compound C, disodium chromoglycate] | > 11000 mg/kg | > 11000 mg/kg |  |  | 11.4% | 18.4% | -2.2% | -25.4% | 24.6% |  | 0% | 0% | 10% | 73.2 mg/kg | 24.1% | 12% | 28% | > 16 mg/kg | > 11000 mg/kg | > 11000 mg/kg | ED50 (dose required for 50% protection from death) (anaphylactic asthma; i.v., anaphylactic asthma, Litchfield-Wilcoxon): No effect; Inhibitory effect of P.C.A. reaction in rat [2, 6]: 55.6%; Inhibitory effect of P.C.A. reaction in rat [2, 7]: 41.4%; Inhibitory effect of P.C.A. reaction in rat [2, 8]: -16.1%; Inhibitory effect of P.C.A. reaction in rat [2, 10]: 9.4%; ED50 (P.C.A. reaction in rat) ([2]; p.o., 2 hours before antigen, Litchfield-Wilcoxon): No effect; Inhibitory effect of Bradykinin-induced bronchoconstruction in guinea-pig ([3]; 16 mg/kg i.v.): 24%
3 | O=C(Cn1c(=O)sc2ccc(Cl)cc21)N1CCN(CCO)CC1 [Compound D, 3-[4-(2-hydroxyethyl)-1-piperazinylcarbonylmethyl]-5-chloro-2-benzothiazolinone hydrochloride] | 3800 mg/kg |  | 46.8 mg/kg | 594 mg/kg | 7.4% | 19.4% | 60.6% | -8.2% | 6.1% | 43.4% |  |  |  |  |  | 44% | 94% | 0.813 mg/kg | 622 mg/kg | 564 mg/kg | Inhibitory effect of Bradykinin-induced bronchoconstruction in guinea-pig ([3]; 0.064 mg/kg i.v.): -14%; Inhibitory effect of Bradykinin-induced bronchoconstruction in guinea-pig ([3]; 0.25 mg/kg i.v.): 27%; Inhibitory effect of Bradykinin-induced bronchoconstruction in guinea-pig ([3]; 16 mg/kg i.v.): 99%

— patent US4131681A, “Antiallergic method” (Fujisawa Pharmaceutical Co., Ltd., priority 1977, dated 1978)
